{"source": "patent US20140243335A1", "about": "“SUBSTITUTED HYDOXAMIC ACIDS AND USES THEREOF” (Millennium Pharmaceuticals, Inc., priority 2010, published 2014)", "data": [{"target": "T1, purified human HDAC6 (Homo sapiens, UniProt Q9UBN7)", "T1 construct": "purchased BPS Bioscience 5006", "T1 sequence (Q9UBN7 1-1215)": "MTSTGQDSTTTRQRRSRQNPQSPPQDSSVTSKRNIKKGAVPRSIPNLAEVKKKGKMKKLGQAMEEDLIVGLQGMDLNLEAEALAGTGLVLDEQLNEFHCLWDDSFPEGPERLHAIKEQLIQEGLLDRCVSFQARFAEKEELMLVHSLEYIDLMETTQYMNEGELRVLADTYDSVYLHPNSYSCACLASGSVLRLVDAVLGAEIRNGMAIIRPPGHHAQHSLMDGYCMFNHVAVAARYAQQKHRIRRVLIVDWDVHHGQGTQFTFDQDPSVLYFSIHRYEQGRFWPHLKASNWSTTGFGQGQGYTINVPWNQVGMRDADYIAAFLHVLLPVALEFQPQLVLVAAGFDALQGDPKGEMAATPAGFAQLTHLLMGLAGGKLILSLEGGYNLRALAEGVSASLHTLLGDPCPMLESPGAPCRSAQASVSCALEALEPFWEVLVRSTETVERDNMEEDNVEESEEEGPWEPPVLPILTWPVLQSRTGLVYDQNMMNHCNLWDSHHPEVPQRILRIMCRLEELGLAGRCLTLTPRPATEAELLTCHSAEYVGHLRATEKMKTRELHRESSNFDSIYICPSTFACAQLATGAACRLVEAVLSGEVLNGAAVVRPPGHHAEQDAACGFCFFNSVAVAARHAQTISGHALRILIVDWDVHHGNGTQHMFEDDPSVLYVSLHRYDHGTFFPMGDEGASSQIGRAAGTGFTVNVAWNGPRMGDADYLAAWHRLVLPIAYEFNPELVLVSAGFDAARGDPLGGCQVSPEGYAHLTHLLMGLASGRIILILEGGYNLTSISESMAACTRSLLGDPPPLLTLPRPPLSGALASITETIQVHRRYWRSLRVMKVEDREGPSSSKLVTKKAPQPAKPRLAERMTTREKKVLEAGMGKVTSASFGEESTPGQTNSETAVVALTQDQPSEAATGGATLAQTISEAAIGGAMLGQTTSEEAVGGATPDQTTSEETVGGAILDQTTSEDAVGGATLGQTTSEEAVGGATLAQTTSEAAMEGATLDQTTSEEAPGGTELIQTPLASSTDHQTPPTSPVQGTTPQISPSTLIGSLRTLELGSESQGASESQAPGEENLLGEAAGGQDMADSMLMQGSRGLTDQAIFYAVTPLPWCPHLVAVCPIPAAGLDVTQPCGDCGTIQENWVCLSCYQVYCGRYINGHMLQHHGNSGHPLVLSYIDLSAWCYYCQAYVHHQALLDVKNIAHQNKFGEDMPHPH", "experiment": "HDAC6 Enzyme Assay", "assay_type": "biochemical", "conditions": "HDAC6 inhibition at a compound concentration of 0.412 μM; read-out: Percent Inhibition at 0.412 μM", "procedure": "To measure the inhibition of HDAC6 activity, purified human HDAC6 (BPS Bioscience; Cat. No. 5006) is incubated with substrate Ac-Arg-Gly-Lys(Ac)-AMC peptide (Bachem Biosciences; Cat. No. I-1925) for 1 hour at 30° C. in the presence of test compounds or vehicle DMSO control. The reaction is stopped with the HDAC inhibitor trichostatin A (Sigma; Cat. No. T8552) and the amount of Arg-Gly-Lys-AMC generated is quantitated by digestion with trypsin (Sigma; Cat. No. T1426) and subsequent measurement of the amount of AMC released using a fluorescent plate reader (Pherastar; BMG Technologies) set at Ex 340 nm and Em 460 nm. Concentration response curves are generated by calculating the fluorescence increase in test compound-treated samples relative to DMSO-treated controls, and enzyme inhibition (IC50) values are determined from those curves.", "units": {"inhibition at 0.412 µM": "%"}, "values": [{"smiles": "Cn1cccc1C(=O)N[C@H]1CCCc2cc(C(=O)NO)ccc21", "note": "[Compound I-67, N-{(1S)-6-[(hydroxyamino)carbonyl]-1,2,3,4-tetrahydronaphthalen-1-yl}-1-methyl-1H-pyrrole-2-carboxamide]", "inhibition at 0.412 µM": 26}, {"smiles": "COc1ccccc1-c1cc(C(=O)N[C@H]2CCCc3cc(C(=O)NO)ccc32)[nH]n1", "note": "[Compound I-68, N-{(1S)-6-[(hydroxyamino)carbonyl]-1,2,3,4-tetrahydronaphthalen-1-yl}-3-(2-methoxyphenyl)-1H-pyrazole-5-carboxamide]", "inhibition at 0.412 µM": 65}, {"smiles": "CC(C)(Oc1ccccc1Cl)C(=O)N[C@H]1CCCc2cc(C(=O)NO)ccc21", "note": "[Compound I-69, (5S)-5-{[2-(2-chlorophenoxy)-2-methylpropanoyl]amino}-N-hydroxy-5,6,7,8-tetrahydronaphthalene-2-carboxamide]", "inhibition at 0.412 µM": 44}, {"smiles": "O=C(NO)c1ccc2c(c1)CCC[C@@H]2NC(=O)c1cn2cc(Cl)ccc2n1", "note": "[Compound I-70, 6-chloro-N-{(1S)-6-[(hydroxyamino)carbonyl]-1,2,3,4-tetrahydronaphthalen-1-yl}imidazo[1,2-a]pyridine-2-carboxamide]", "inhibition at 0.412 µM": 63}, {"smiles": "O=C(NO)c1ccc2c(c1)CCC[C@@H]2NC(=O)c1cc(-c2ccc(F)cc2)n[nH]1", "note": "[Compound I-71, 3-(4-fluorophenyl)-N-{(1S)-6-[(hydroxyamino)carbonyl]-1,2,3,4-tetrahydronaphthalen-1-yl}-1H-pyrazole-5-carboxamide]", "inhibition at 0.412 µM": 60}, {"smiles": "Cc1ccc(-c2cc(C(=O)N[C@H]3CCCc4cc(C(=O)NO)ccc43)[nH]n2)cc1", "note": "[Compound I-72, N-{(1S)-6-[(hydroxyamino)carbonyl]-1,2,3,4-tetrahydronaphthalen-1-yl}-3-(4-methylphenyl)-1H-pyrazole-5-carboxamide]", "inhibition at 0.412 µM": 54}, {"smiles": "CC(C)(C)C(=O)N[C@@H]1CCc2ccc(C(=O)NO)cc2C1", "note": "[Compound I-73, (7R)-7-[(2,2-dimethylpropanoyl)amino]-N-hydroxy-5,6,7,8-tetrahydronaphthalene-2-carboxamide]", "inhibition at 0.412 µM": 73}, {"smiles": "CC1(C)CCC(C)(C)c2cc(C(=O)NO)ccc21", "note": "[Compound I-74, N-hydroxy-5,5,8,8-tetramethyl-5,6,7,8-tetrahydronaphthalene-2-carboxamide]", "inhibition at 0.412 µM": 20}, {"smiles": "CC(C)(C)C(=O)N[C@H]1CCc2ccc(C(=O)NO)cc2C1", "note": "[Compound I-75, (7S)-7-[(2,2-dimethylpropanoyl)amino]-N-hydroxy-5,6,7,8-tetrahydronaphthalene-2-carboxamide]", "inhibition at 0.412 µM": 90}, {"smiles": "O=C(NO)c1ccc2c(c1)CC(NCc1ccc(Cl)cc1)CC2", "note": "(stereo not shown) [Compound I-76, 7-[(4-chlorobenzyl)amino]-N-hydroxy-5,6,7,8-tetrahydronaphthalene-2-carboxamide]", "inhibition at 0.412 µM": 80}, {"smiles": "COc1ccc(C(=O)NC2CCc3ccc(C(=O)NO)cc3C2)cc1", "note": "(stereo not shown) [Compound I-77, N-hydroxy-7-[(4-methoxybenzoyl)amino]-5,6,7,8-tetrahydronaphthalene-2-carboxamide]", "inhibition at 0.412 µM": 92}, {"smiles": "CN(C)Cc1cc(C(=O)NC2CCc3ccc(C(=O)NO)cc3C2)cc(C(F)(F)F)c1", "note": "(stereo not shown) [Compound I-78, 7-{[3-[(dimethylamino)methyl]-5-(trifluoromethyl)benzoyl]amino}-N-hydroxy-5,6,7,8-tetrahydronaphthalene-2-carboxamide]", "inhibition at 0.412 µM": 88}, {"smiles": "Cn1cc(-c2cc(C(=O)NC3CCc4ccc(C(=O)NO)cc4C3)cc(C(F)(F)F)c2)cn1", "note": "(stereo not shown) [Compound I-79, N-hydroxy-7-{[3-(1-methyl-1H-pyrazol-4-yl)-5-(trifluoromethyl)benzoyl]amino}-5,6,7,8-tetrahydronaphthalene-2-carboxamide]", "inhibition at 0.412 µM": 94}, {"smiles": "CN(C)C1CCc2ccc(C(=O)NO)cc2C1", "note": "(stereo not shown) [Compound I-80, 7-(dimethylamino)-N-hydroxy-5,6,7,8-tetrahydronaphthalene-2-carboxamide]", "inhibition at 0.412 µM": 43}, {"smiles": "O=C(NO)c1ccc2c(c1)CC(NCCc1ccccc1)CC2", "note": "(stereo not shown) [Compound I-81, N-hydroxy-7-[(2-phenylethyl)amino]-5,6,7,8-tetrahydronaphthalene-2-carboxamide]", "inhibition at 0.412 µM": 84}, {"smiles": "O=C(NO)c1ccc2c(c1)CC(Nc1cccc(Cl)c1)CC2", "note": "(stereo not shown) [Compound I-82, 7-[(3-chlorophenyl)amino]-N-hydroxy-5,6,7,8-tetrahydronaphthalene-2-carboxamide]", "inhibition at 0.412 µM": 85}, {"smiles": "O=C(NO)c1ccc2c(c1)CC(Nc1ccc(Cl)cc1)CC2", "note": "(stereo not shown) [Compound I-83, 7-[(4-chlorophenyl)amino]-N-hydroxy-5,6,7,8-tetrahydronaphthalene-2-carboxamide]", "inhibition at 0.412 µM": 86}, {"smiles": "COc1cccc(NC2CCc3ccc(C(=O)NO)cc3C2)c1", "note": "(stereo not shown) [Compound I-84, N-hydroxy-7-[(3-methoxyphenyl)amino]-5,6,7,8-tetrahydronaphthalene-2-carboxamide]", "inhibition at 0.412 µM": 82}, {"smiles": "O=C(NO)c1ccc2c(c1)CC(NCc1ccncc1)CC2", "note": "(stereo not shown) [Compound I-85, N-hydroxy-7-[(pyridin-4-ylmethyl)amino]-5,6,7,8-tetrahydronaphthalene-2-carboxamide]", "inhibition at 0.412 µM": 75}, {"smiles": "O=C(NO)c1ccc2c(c1)CC(Oc1ccncc1)CC2", "note": "(stereo not shown) [Compound I-86, N-hydroxy-7-(pyridin-4-yloxy)-5,6,7,8-tetrahydronaphthalene-2-carboxamide]", "inhibition at 0.412 µM": 91}, {"smiles": "O=C(NO)c1ccc2c(c1)CC(Oc1ccccc1)CC2", "note": "(stereo not shown) [Compound I-87, N-hydroxy-7-phenoxy-5,6,7,8-tetrahydronaphthalene-2-carboxamide]", "inhibition at 0.412 µM": 92}, {"smiles": "O=C(NO)c1ccc2c(c1)CC(c1ccncc1)CC2", "note": "(stereo not shown) [Compound I-88, N-hydroxy-7-pyridin-4-yl-5,6,7,8-tetrahydronaphthalene-2-carboxamide]", "inhibition at 0.412 µM": 89}, {"smiles": "O=C(NO)c1ccc2c(c1)CC(c1ccccc1)CC2", "note": "(stereo not shown) [Compound I-89, N-hydroxy-7-phenyl-5,6,7,8-tetrahydronaphthalene-2-carboxamide]", "inhibition at 0.412 µM": 84}, {"smiles": "O=C(NO)c1ccc2c(c1)CC(c1ccc(Cl)cc1)CC2", "note": "(stereo not shown) [Compound I-90, 7-(4-chlorophenyl)-N-hydroxy-5,6,7,8-tetrahydronaphthalene-2-carboxamide]", "inhibition at 0.412 µM": 82}, {"smiles": "O=C(NO)c1ccc2c(c1)CC(Oc1ccc(Cl)cc1)CC2", "note": "(stereo not shown) [Compound I-91, 7-(4-chlorophenoxy)-N-hydroxy-5,6,7,8-tetrahydronaphthalene-2-carboxamide]", "inhibition at 0.412 µM": 93}, {"smiles": "CC(=O)Nc1cccc(C2CCc3ccc(C(=O)NO)cc3C2)c1", "note": "(stereo not shown) [Compound I-92, 7-[3-(acetylamino)phenyl]-N-hydroxy-5,6,7,8-tetrahydronaphthalene-2-carboxamide]", "inhibition at 0.412 µM": 92}, {"smiles": "O=C(NO)c1ccc2c(c1)CC(CCc1ccccc1)CC2", "note": "(stereo not shown) [Compound I-93, N-hydroxy-7-(2-phenylethyl)-5,6,7,8-tetrahydronaphthalene-2-carboxamide]", "inhibition at 0.412 µM": 74}, {"smiles": "O=C(Nc1ccccc1)NC1CCc2ccc(C(=O)NO)cc2C1", "note": "(stereo not shown) [Compound I-94, 7-[(anilinocarbonyl)amino]-N-hydroxy-5,6,7,8-tetrahydronaphthalene-2-carboxamide]", "inhibition at 0.412 µM": 96}, {"smiles": "O=C(NO)c1ccc2c(c1)CC(Nc1ccncc1)CC2", "note": "(stereo not shown) [Compound I-95, N-hydroxy-7-(pyridin-4-ylamino)-5,6,7,8-tetrahydronaphthalene-2-carboxamide]", "inhibition at 0.412 µM": 71}, {"smiles": "O=C(NO)c1ccc2c(c1)CC(NS(=O)(=O)c1ccccc1)CC2", "note": "(stereo not shown) [Compound I-96, N-hydroxy-7-[(phenylsulfonyl)amino]-5,6,7,8-tetrahydronaphthalene-2-carboxamide]", "inhibition at 0.412 µM": 92}, {"smiles": "CC(=O)Nc1cc(C2CCc3ccc(C(=O)NO)cc3C2)ccn1", "note": "(stereo not shown) [Compound I-97, 7-[2-(acetylamino)pyridin-4-yl]-N-hydroxy-5,6,7,8-tetrahydronaphthalene-2-carboxamide]", "inhibition at 0.412 µM": 92}]}]}
